# Results from patent US20150239889A1, “PYRAZOLOPYRIMIDINE COMPOUND” (MITSUBISHI TANABE PHARMA CORPORATION, priority 2012, published 2015).
# Tests used:
# human HIF-PHD2 = target: T1, human HIF-PHD2 (Homo sapiens, UniProt Q9GZT9); assay: HIF-PHD inhibition assay (fluorescence polarization), human HIF-PHD2; type: biochemical; conditions: 2-oxoglutaric acid 3.33 μmol/L
# T1 construct: purchased CrystalGenomics Ltd
# How it was run: (§1)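 Activity was derived as the fluorescence polarization (mP) after enzyme addition minus that measured before enzyme addition. Probe bore a 5′-fluoresceinamide (FAM) label with an aminocaproic acid (ACA) linker.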
# human HIF-PHD3 = target: T2, human HIF-PHD3 (Homo sapiens, UniProt Q9H6Z9); assay: HIF-PHD inhibition assay (fluorescence polarization), human HIF-PHD3; type: biochemical; conditions: 2-oxoglutaric acid 166 μmol/L
# T2 construct: purchased CrystalGenomics Ltd
# T2 sequence (Q9H6Z9 whole entry): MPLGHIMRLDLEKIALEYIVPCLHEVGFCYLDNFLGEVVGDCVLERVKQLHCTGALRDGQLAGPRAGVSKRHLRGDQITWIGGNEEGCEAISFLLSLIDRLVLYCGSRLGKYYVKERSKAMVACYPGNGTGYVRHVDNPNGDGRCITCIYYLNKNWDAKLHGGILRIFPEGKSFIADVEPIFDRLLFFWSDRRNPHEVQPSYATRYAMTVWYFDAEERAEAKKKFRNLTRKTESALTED
# How it was run: as §1
# Hep3B cells = assay: EPO production assay (ELISA of culture supernatant); type: cell-based; conditions: Homo sapiens, 3 μmol/L test compound, 48 hours, relative to control (0.1% DMSO), read-out: EPO production stimulation rate with 3 μmol/L test compound
# How it was run: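 Hep3B cells (40000/well) switched to MEM with 0.5% FBS and treated with compound (0.1% DMSO) for 48 h at 37 °C. Supernatant EPO measured by ELISA; value is fold stimulation at 3 μmol/L compound over unstimulated control.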
# T1 sequence (Q9GZT9 2-426 limits assumed): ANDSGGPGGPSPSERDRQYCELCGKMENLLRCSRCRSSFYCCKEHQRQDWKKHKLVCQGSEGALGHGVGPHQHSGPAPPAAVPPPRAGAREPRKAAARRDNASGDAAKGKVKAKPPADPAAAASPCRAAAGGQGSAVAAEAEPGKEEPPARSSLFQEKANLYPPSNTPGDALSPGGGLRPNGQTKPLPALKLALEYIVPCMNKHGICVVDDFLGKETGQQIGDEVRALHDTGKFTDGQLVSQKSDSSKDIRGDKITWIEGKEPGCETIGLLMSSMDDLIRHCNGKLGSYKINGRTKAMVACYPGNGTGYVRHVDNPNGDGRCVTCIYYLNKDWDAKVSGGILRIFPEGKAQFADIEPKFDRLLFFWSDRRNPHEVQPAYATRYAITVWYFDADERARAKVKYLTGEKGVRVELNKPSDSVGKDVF
Compound,IC50 (human HIF-PHD2),IC50 (human HIF-PHD3),fold induction at 3 µM (Hep3B cells)
O=C(O)c1cnn(-c2nc(O)c3c(cnn3CC3(COc4ccc(Cl)cc4)CC3)n2)c1 [Example 198],89 nM,1200 nM,3.2
N#Cc1ccccc1-c1ccc(Cn2ncc3nc(-n4cc(C(=O)O)cn4)nc(O)c32)c(F)c1 [Example 87],50 nM,260 nM,5.3
CC(C)(CCn1ncc2nc(-n3cc(C(=O)O)cn3)nc(O)c21)c1ccc2ccccc2c1 [Example 132],67 nM,400 nM,2.6
COc1ccccc1-c1ccc(Cn2ncc3nc(-n4cc(C(=O)O)cn4)nc(O)c32)cc1OC [Example 99],37 nM,200 nM,3.1
O=C(O)c1cnn(-c2nc(O)c3c(cnn3CCOc3ccc(-c4ccccc4)cc3)n2)c1 [Example 205],13 nM,280 nM,20
O=C(O)c1cnn(-c2nc(O)c3c(cnn3Cc3cc(-c4ccccc4)ccc3F)n2)c1 [Example 49],30 nM,200 nM,7.6
O=C(O)c1cnn(-c2nc(O)c3c(cnn3C[C@H]3CC[C@H](c4ccc(Cl)cc4)CC3)n2)c1 [Example 156],20 nM,160 nM,24
O=C(O)c1cnn(-c2nc(O)c3c(cnn3CCCOc3ccc4c(c3C3CC3)CCCC4)n2)c1 [Example 191],130 nM,540 nM,1.6
O=C(O)c1cnn(-c2nc(O)c3c(n2)c(Cl)nn3CC2CCCCC2)c1 [Example 222],48 nM,450 nM,1.5
C[C@@H](c1ccc(-c2ccccc2)cc1)n1ncc2nc(-n3cc(C(=O)O)cn3)nc(O)c21 [Example 110],27 nM,63 nM,56
O=C(O)c1cnn(-c2nc(O)c3c(cnn3CCc3ccc(-c4ccccc4)cc3)n2)c1 [Example 130],6 nM,130 nM,19
O=C(O)c1cnn(-c2nc(O)c3c(cnn3Cc3cccc(OC(F)(F)F)c3)n2)c1 [Example 11],62 nM,470 nM,2.5
O=C(O)c1cnn(-c2nc(O)c3nn(CC4CCN(c5ccc(C(F)(F)F)cn5)CC4)cc3n2)c1 [Example 247],17 nM,270 nM,1.3
O=C(O)c1cnn(-c2nc(O)c3c(cnn3C[C@H]3CC[C@H](Oc4ccc(F)cc4)CC3)n2)c1 [Example 149],17 nM,54 nM,22
C[C@@H](c1ccc(F)cc1)n1ncc2nc(-n3cc(C(=O)O)cn3)nc(O)c21 [Example 18],35 nM,450 nM,5.6
CCC(c1ccc(C(F)(F)F)cc1)n1ncc2nc(-n3cc(C(=O)O)cn3)nc(O)c21 (stereo not drawn) [Example 326],53 nM,360 nM,7.7
O=C(O)c1cnn(-c2nc(O)c3c(cnn3Cc3ccc(-c4cccc(F)c4F)cc3)n2)c1 [Example 76],9.1 nM,120 nM,6.9
O=C(O)c1cnn(-c2nc(O)c3c(cnn3CCCCc3ccc(Cl)cc3)n2)c1 [Example 165],12 nM,210 nM,15
C[C@@H](c1ccc(Cl)cc1)n1ncc2nc(-n3cc(C(=O)O)cn3)nc(O)c21 [Example 21],17 nM,520 nM,7.5
COc1ccccc1-c1ccc(Cn2ncc3nc(-n4cc(C(=O)O)cn4)nc(O)c32)cc1F [Example 95],24 nM,86 nM,4.2
Cc1ccccc1-c1ccc(Cn2ncc3nc(-n4cc(C(=O)O)cn4)nc(O)c32)c(F)c1 [Example 83],33 nM,240 nM,6.2
O=C(O)c1cnn(-c2nc(O)c3c(cnn3CCCCCc3ccccc3)n2)c1 [Example 166],31 nM,130 nM,8.1
